Like-named read-outs stand apart in the source and are kept apart here. Bounds are passed on as bounds.

These results are taken from patent publication US11564928B1, “Cannabinoid receptor type 2 (CB2) modulators and uses thereof” (Teon Therapeutics, Inc., priority 2020, dated 2023).

One assay has as its target human recombinant CB1R (Homo sapiens (Human), UniProt P21554). Briefly: CB1 receptor binding assay ([3H]CP-55,940 displacement, HEK-293 membranes). How it is done:
The compounds were evaluated in CB1R and CB2R binding assays using membranes from HEK-293 cells transfected with cDNAs encoding the human recombinant CB1R (Bmax=[…] protein) and human recombinant CB2R (Bmax=[…] protein) (Perkin-Elmer). […]. Compounds were tested following the procedure described by the cell membrane manufacturer. […] CB2R binding assays were carried out with two different buffers: incubation buffer (Tris-HCl, 50 mM; MgCl2, 5 mM; CaCl2 1 mM; BSA, 0.2% at pH 7.4) and washing buffer (Tris-HCl, 50 mM; NaCl 500 mM; BSA, 0.1% at pH 7.4). […] Assays were performed in duplicate and incubated for […] at 37° C. After the incubation, the assay mixture is filtered through 96 GF/C filter plates (Perkin Elmer #6005174) using Perkin Elmer Filtermate Harvester, and then washed four times with ice-cold washing buffer. The filters are dried for 1 hour at 50° C. and [^3H] trapped on filter counted for radioactivity in Perkin Elmer Microscint 20 cocktail (#6013329) using Perkin Elmer MicroBeta2 Reader. […] Data are analyzed and IC50 is calculated using GraphPad Prism 5 and the model “log(inhibitor) vs. response—Variable slope”. The binding affinity of the compounds is Determined by Using the Cheng and Prusoff Equation Ki=IC50/(1+[radioligand]/Kd).

The next assay addresses human CB2 receptor (Homo sapiens (Human), UniProt P34972). Briefly: CB2 receptor binding assay ([3H]CP-55,940 displacement, HEK-293 membranes). How it is done: The compounds were evaluated in CB1R and CB2R binding assays using membranes from HEK-293 cells transfected with cDNAs encoding the human recombinant CB1R (Bmax=[…] protein) and human recombinant CB2R (Bmax=[…] protein) (Perkin-Elmer). […] Compounds were tested following the procedure described by the cell membrane manufacturer. […] CB2R binding assays were carried out with two different buffers: incubation buffer (Tris-HCl, 50 mM; MgCl2, 5 mM; CaCl2 1 mM; BSA, 0.2% at pH 7.4) and washing buffer (Tris-HCl, 50 mM; NaCl 500 mM; BSA, 0.1% at pH 7.4). […] Assays were performed in duplicate and incubated for […] at 37° C. […] Data are analyzed and IC50 is calculated using GraphPad Prism 5 and the model “log(inhibitor) vs. response—Variable slope”. The binding affinity of the compounds is Determined by Using the Cheng and Prusoff Equation Ki=IC50/(1+[radioligand]/Kd).

The mark [1] stands for this setting: membranes of HEK-293 cells with human recombinant CB1R, [3H]CP-55,940, class symbols, read-out: CB1 IC50.
The mark [2] stands for this setting: membranes of HEK-293 cells with human recombinant CB1R, [3H]CP-55,940, read-out: CB1 IC50.
Setting [3] is: membranes of HEK-293 cells with human recombinant CB2R, [3H]CP-55,940, read-out: CB2 IC50.
Setting [4] is: membranes of HEK-293 cells with human recombinant CB2R, [3H]CP-55,940, class symbols, read-out: CB2 IC50.

Chain of human recombinant CB1R (P21554 whole entry): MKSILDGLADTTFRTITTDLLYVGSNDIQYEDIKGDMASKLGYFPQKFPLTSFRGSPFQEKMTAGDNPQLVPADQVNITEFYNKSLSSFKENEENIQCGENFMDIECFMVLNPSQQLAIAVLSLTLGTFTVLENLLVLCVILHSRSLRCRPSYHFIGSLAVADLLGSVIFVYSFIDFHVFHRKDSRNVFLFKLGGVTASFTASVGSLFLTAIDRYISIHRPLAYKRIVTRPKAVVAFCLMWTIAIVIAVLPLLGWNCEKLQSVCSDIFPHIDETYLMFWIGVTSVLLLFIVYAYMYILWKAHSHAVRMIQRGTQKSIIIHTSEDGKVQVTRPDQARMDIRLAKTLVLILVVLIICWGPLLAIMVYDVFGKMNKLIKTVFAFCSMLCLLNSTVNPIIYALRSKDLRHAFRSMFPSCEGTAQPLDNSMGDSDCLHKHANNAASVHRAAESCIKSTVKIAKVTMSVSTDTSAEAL
Chain of human CB2 receptor (P34972 whole entry): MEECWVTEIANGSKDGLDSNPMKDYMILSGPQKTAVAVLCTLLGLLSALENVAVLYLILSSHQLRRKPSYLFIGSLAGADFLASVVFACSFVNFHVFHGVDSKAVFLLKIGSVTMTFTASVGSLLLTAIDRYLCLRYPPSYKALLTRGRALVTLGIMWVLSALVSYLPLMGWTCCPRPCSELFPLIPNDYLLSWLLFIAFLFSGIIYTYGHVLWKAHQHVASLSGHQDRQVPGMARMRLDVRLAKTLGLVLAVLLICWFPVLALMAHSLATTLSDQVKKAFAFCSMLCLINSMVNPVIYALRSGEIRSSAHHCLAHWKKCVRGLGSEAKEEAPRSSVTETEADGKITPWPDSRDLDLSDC

In the case of `Cc1c(C(=O)NC2CC3(CCC3)C2)c(=O)n(Cc2ccc(C#N)cc2)c2ncc(Br)cc12` [Compound 77, 6-bromo-1-(4-cyanobenzyl)-4-methyl-2-oxo-N-(spiro[3.3]heptan-2-yl)-1,2-dihydro-1,8-naphthyridine-3-carboxamide], the IC50 is over 1000 nM at human recombinant CB1R (setting [1]) and 100 to 999 nM on human CB2 receptor.

As to `Cc1c(C(=O)NC2CC3(CCC3)C2)c(=O)n(Cc2cccc(C#N)c2)c2ncc(Br)cc12` [Compound 78, 6-bromo-1-(3-cyanobenzyl)-4-methyl-2-oxo-N-(spiro[3.3]heptan-2-yl)-1,2-dihydro-1,8-naphthyridine-3-carboxamide], the IC50 is over 1000 nM at human recombinant CB1R (setting [1]) and 100 to 999 nM on human CB2 receptor.

`COc1ccc(-c2cnc3c(c2)c(C)c(C(=O)NC2CCC(C)CC2)c(=O)n3Cc2ccc(F)cc2)cc1` (centres unmarked) [Compound 80, 1-(4-fluorobenzyl)-6-(4-methoxyphenyl)-4-methyl-N-(4-methylcyclohexyl)-2-oxo-1,2-dihydro-1,8-naphthyridine-3-carboxamide]: the IC50 was over 1000 nM at human recombinant CB1R (setting [1]) and 100 to 999 nM at human CB2 receptor.

For `O=C(NC1CC2(CCC2)C1)c1cc2cc(Br)cnc2n(Cc2ccc(F)cc2)c1=O` [Compound 81, 6-bromo-1-(4-fluorobenzyl)-2-oxo-N-(spiro[3.3]heptan-2-yl)-1,2-dihydro-1,8-naphthyridine-3-carboxamide], the figures for the IC50 on human recombinant CB1R (setting [2]) and at human CB2 receptor (setting [3]) were over 10000 nM and 5 nM, respectively.

On to `CC(C)c1cnc2c(c1)cc(C(=O)NC13CC(C1)C3)c(=O)n2Cc1ccc(F)cc1` [Compound 84, N-(bicyclo[1.1.1]pentan-1-yl)-1-(4-fluorobenzyl)-6-isopropyl-2-oxo-1,2-dihydro-1,8-naphthyridine-3-carboxamide], for which the IC50 at human recombinant CB1R (setting [2]) turned out to be 413 nM; at human CB2 receptor (setting [3]), 3.7 nM.

As to `CC(C)c1cnc2c(c1)cc(C(=O)NC1(c3ccc(C#N)cc3)CC1)c(=O)n2Cc1ccc(F)cc1` [Compound 86, N-(1-(4-cyanophenyl)cyclopropyl)-1-(4-fluorobenzyl)-6-isopropyl-2-oxo-1,2-dihydro-1,8-naphthyridine-3-carboxamide], the values for the IC50 at human recombinant CB1R (setting [1]) and on human CB2 receptor (setting [4]) were over 1000 nM and under 100 nM, respectively.

As to `C[C@@H](NC(=O)c1cc2cc(Br)cnc2n(Cc2ccc(F)cc2)c1=O)c1ccc(F)cc1` [Compound 87, (R)-6-bromo-1-(4-fluorobenzyl)-N-(1-(4-fluorophenyl)ethyl)-2-oxo-1,2-dihydro-1,8-naphthyridine-3-carboxamide], the IC50 came out at 4580 nM on human recombinant CB1R (setting [2]) and 5 nM on human CB2 receptor (setting [3]).

Take `C=C(C)c1cnc2c(c1)cc(C(=O)N[C@H](C)c1ccc(F)cc1)c(=O)n2Cc1ccc(F)cc1` [Compound 88, (R)-1-(4-fluorobenzyl)-N-(1-(4-fluorophenyl)ethyl)-2-oxo-6-(prop-1-en-2-yl)-1,2-dihydro-1,8-naphthyridine-3-carboxamide]: the IC50 at human recombinant CB1R (setting [2]) was over 10000 nM; on human CB2 receptor (setting [3]), 6.7 nM.

For `C[C@H](NC(=O)c1cc2cc(Br)cnc2n(Cc2ccc(F)cc2)c1=O)c1ccc(F)cc1` [Compound 90, (S)-6-bromo-1-(4-fluorobenzyl)-N-(1-(4-fluorophenyl)ethyl)-2-oxo-1,2-dihydro-1,8-naphthyridine-3-carboxamide], the half-inhibitory concentration (IC50) at human recombinant CB1R (setting [2]) is 348 nM; on human CB2 receptor (setting [3]) it was 11 nM.

As to `C[C@@H](NC(=O)c1cc2cc(Br)cnc2n(Cc2ccc(F)cc2)c1=O)c1ccc(C#N)cc1` [Compound 91, (R)-6-bromo-N-(1-(4-cyanophenyl)ethyl)-1-(4-fluorobenzyl)-2-oxo-1,2-dihydro-1,8-naphthyridine-3-carboxamide], the values for the IC50 on human recombinant CB1R (setting [2]) and on human CB2 receptor (setting [3]) were over 10000 nM and 7 nM, respectively.

On to `O=C(NC1CC2(CCC2)C1)c1cc2cc(C3CC3)cnc2n(Cc2ccc(F)cc2)c1=O` [Compound 93, 6-cyclopropyl-1-(4-fluorobenzyl)-2-oxo-N-(spiro[3.3]heptan-2-yl)-1,2-dihydro-1,8-naphthyridine-3-carboxamide], for which the half-inhibitory concentration (IC50) on human recombinant CB1R (setting [2]) is over 10000 nM; at human CB2 receptor (setting [3]), 3.6 nM.

On to `O=C(NC1CC2(CCC2)C1)c1cc2cc(Br)cnc2n(Cc2cccnc2)c1=O` [Compound 96, 6-bromo-2-oxo-1-(pyridin-3-ylmethyl)-N-(spiro[3.3]heptan-2-yl)-1,2-dihydro-1,8-naphthyridine-3-carboxamide], for which the results for the 50% inhibitory concentration (IC50) at human recombinant CB1R (setting [1]) and at human CB2 receptor (setting [4]) were over 1000 nM and under 100 nM, respectively.

On to `O=C(NC1CC2(CCC2)C1)c1cc2cc(-c3ccc(F)cc3)cnc2n(Cc2cccnc2)c1=O` [Compound 97, 6-(4-fluorophenyl)-2-oxo-1-(pyridin-3-ylmethyl)-N-(spiro[3.3]heptan-2-yl)-1,2-dihydro-1,8-naphthyridine-3-carboxamide], for which the IC50 at human recombinant CB1R (setting [1]) is over 1000 nM; at human CB2 receptor (setting [4]), under 100 nM.

Take `C[C@@H](NC(=O)c1cc2cc(Br)cnc2n(Cc2ccc(C#N)cc2)c1=O)c1ccc(F)cc1` [Compound 104, (R)-6-bromo-1-(4-cyanobenzyl)-N-(1-(4-fluorophenyl)ethyl)-2-oxo-1,2-dihydro-1,8-naphthyridine-3-carboxamide]: the concentration for half-maximal inhibition (IC50) at human recombinant CB1R (setting [1]) was over 1000 nM; on human CB2 receptor (setting [4]), under 100 nM.

As for `O=C(NC1CC2(CCC2)C1)c1cc2cc(-c3ccc(F)cc3)cnc2n(Cc2ccccn2)c1=O` [Compound 106, 6-(4-fluorophenyl)-2-oxo-1-(pyridin-2-ylmethyl)-N-(spiro[3.3]heptan-2-yl)-1,2-dihydro-1,8-naphthyridine-3-carboxamide], the values for the concentration for half-maximal inhibition (IC50) on human recombinant CB1R (setting [1]) and at human CB2 receptor (setting [4]) were over 1000 nM and under 100 nM, respectively.

As to `CC(C)c1cnc2c(c1)cc(C(=O)N[C@H](C)c1ccc(C#N)cc1)c(=O)n2Cc1ccc(F)cn1` [Compound 108, (R)—N-(1-(4-cyanophenyl)ethyl)-1-((5-fluoropyridin-2-yl)methyl)-6-isopropyl-2-oxo-1,2-dihydro-1,8-naphthyridine-3-carboxamide], the results for the IC50 at human recombinant CB1R (setting [1]) and on human CB2 receptor were over 1000 nM and 100 to 999 nM, respectively.

As for `C[C@H]1CC[C@@H](NC(=O)c2c(O)c3cc(-c4ccc(F)cc4)cnc3n(CCN3CCOCC3)c2=O)CC1` [Compound 109, 6-(4-fluorophenyl)-4-hydroxy-N-((1s, 4s)-4-methylcyclohexyl)-1-(2-morpholinoethyl)-2-oxo-1,2-dihydro-1,8-naphthyridine-3-carboxamide], the figures for the IC50 at human recombinant CB1R (setting [1]) and at human CB2 receptor (setting [4]) were over 1000 nM and under 100 nM, respectively.

On to `CC12CC(NC(=O)c3c(O)c4cc(-c5ccc(F)cc5)cnc4n(CCN4CCOCC4)c3=O)(C1)C2` [Compound 110, 6-(4-fluorophenyl)-4-hydroxy-N-(3-methylbicyclo[1.1.1]pentan-1-yl)-1-(2-morpholinoethyl)-2-oxo-1,2-dihydro-1,8-naphthyridine-3-carboxamide], for which the IC50 on human recombinant CB1R and at human CB2 receptor was 100 to 999 nM throughout.

Consider `CC1(C)CC(NC(=O)c2c(O)c3cc(-c4ccc(F)cc4)cnc3n(CCN3CCOCC3)c2=O)C1` [Compound 111, N-(3,3-dimethylcyclobutyl)-6-(4-fluorophenyl)-4-hydroxy-1-(2-morpholinoethyl)-2-oxo-1,2-dihydro-1,8-naphthyridine-3-carboxamide], for which the IC50 at human recombinant CB1R was 100 to 999 nM; on human CB2 receptor (setting [4]), under 100 nM.

Turning to `O=C(NC1CC2(CC2)C1)c1c(O)c2cc(-c3ccc(F)cc3)cnc2n(CCN2CCOCC2)c1=O` [Compound 112, 6-(4-fluorophenyl)-4-hydroxy-1-(2-morpholinoethyl)-2-oxo-N-(spiro[2.3]hexan-5-yl)-1,2-dihydro-1,8-naphthyridine-3-carboxamide], the values for the IC50 on human recombinant CB1R (setting [1]) and on human CB2 receptor (setting [4]) were over 1000 nM and under 100 nM, respectively.

As to `C[C@H]1C[C@@H](NC(=O)c2c(O)c3cc(-c4ccc(F)cc4)cnc3n(CCN3CCOCC3)c2=O)C1` [Compound 113, 6-(4-fluorophenyl)-4-hydroxy-N-((1s, 3s)-3-methylcyclobutyl)-1-(2-morpholinoethyl)-2-oxo-1,2-dihydro-1,8-naphthyridine-3-carboxamide], the IC50 at human recombinant CB1R (setting [1]) and at human CB2 receptor (setting [4]) was over 1000 nM in each case.

For the compound `C[C@H]1C[C@H](NC(=O)c2c(O)c3cc(-c4ccc(F)cc4)cnc3n(CCN3CCOCC3)c2=O)C1` [Compound 114, 6-(4-fluorophenyl)-4-hydroxy-N-((1r, 3r)-3-methylcyclobutyl)-1-(2-morpholinoethyl)-2-oxo-1,2-dihydro-1,8-naphthyridine-3-carboxamide], the figures for the concentration for half-maximal inhibition (IC50) at human recombinant CB1R (setting [1]) and on human CB2 receptor were over 1000 nM and 100 to 999 nM, respectively.
